# Test results as given in patent US20020137929A1, “1 - (3-heterocyclylphenyl) isothiourea, -isourea, -guanidine and -amidine herbicidal agents” (Intellectual Property Department, BASF Aktiengesellschaft, priority 1998, published 2002).
# Columns and labels:
# AMBEL (Ragweed, Common) [1] = assay: Postemergence herbicidal evaluation; format: in vivo, Ambrosia artemisifolia; settings: postemergence
# How it was run: (§1)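 Visual 0-9 injury score (stand, vigor, malformation, size, chlorosis, appearance vs untreated) taken four to five weeks post-spray, averaged across repeat tests. Test plants about two weeks old; foliar spray of acetone/water (1:1) with 0.5% surfactant delivering ~0.0156-0.500 kg active/ha.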
# [2] = system: IPOHE (Morningglory, Ivyleaf); assay: Postemergence herbicidal evaluation; format: in vivo, Ipomoea hederacea; settings: postemergence
# How it was run: as §1
# [3] = system: GLXMAW (Soybean, Williams); assay: Postemergence herbicidal evaluation; format: in vivo, Glycine max, (L.) Merr. cv Williams; settings: postemergence
# How it was run: as §1
# ZEAMX (Corn, Field) = assay: Postemergence herbicidal evaluation; format: in vivo, Zea mays; settings: postemergence
# How it was run: as §1
# ABUTH (Velvetleaf) = assay: Preemergence herbicidal evaluation; format: in vivo, Abutilon theophrasti; settings: rated 4-5 weeks after treatment
# How it was run: (§2)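 Scores use a 0–9 visual scale covering stand, vigor, malformation, size and chlorosis relative to controls, rated four to five weeks after treatment. Before emergence, soil-planted seeds were sprayed with compound in aqueous acetone at roughly 0.0156–0.500 kg/ha and held in the greenhouse.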
# AMBEL (Ragweed, Common) [4] = assay: Preemergence herbicidal evaluation; format: in vivo, Ambrosia artemisifolia; settings: rated 4-5 weeks after treatment
# How it was run: as §2
# CASOB (Sicklepod) = assay: Preemergence herbicidal evaluation; format: in vivo, Cassia obtusifolia; settings: rated 4-5 weeks after treatment
# How it was run: as §2
# GALAP (Galium) = assay: Preemergence herbicidal evaluation; format: in vivo, Galium aparine; settings: rated 4-5 weeks after treatment
# How it was run: as §2
# ECHCG (Barnyardgrass) = assay: Preemergence herbicidal evaluation; format: in vivo, Echinochloa crus-galli; settings: rated 4-5 weeks after treatment
# How it was run: as §2
# SETVI (Foxtail, Green) = assay: Preemergence herbicidal evaluation; format: in vivo, Setaria viridis; settings: rated 4-5 weeks after treatment
# How it was run: as §2
# [5] = system: GLXMAW (Soybean, Williams); assay: Preemergence herbicidal evaluation; format: in vivo, Glycine max, (L.) Merr. cv Williams; settings: rated 4-5 weeks after treatment
# How it was run: as §2
# CYPSE (Flatsedge) = assay: Preemergence weed control under flooded paddy conditions; format: in vivo, Cyperus serotinus; settings: rated 3-4 weeks after treatment
# How it was run: (§3)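 Flooded-pot preemergence screen with silt loam and seeds in the upper 0.5 cm. Dose about 0.0313 to 0.500 kg/ha, delivered into flood water; visual 0-9 score after 3 to 4 weeks.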
# [6] = system: SAGPY (Arrowhead (Pygmaea)); assay: as above; format: in vivo, Sagittaria pygmaea; settings: rated 3-4 weeks after treatment
# How it was run: as §3
# [7] = system: ECHORC (Watergrass (Calif.)); assay: Postemergence weed control under flooded paddy conditions; format: in vivo, Echinochloa oryzoides; settings: postemergence weeds, 3-4 weeks after treatment
# How it was run: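 Injury ratings (0–9 scale covering stand, vigor, malformation, size, chlorosis and overall appearance versus control) were made three to four weeks after treatment. Test material, about 0.0313 to 0.500 kg/ha a.i. in 50/50 v/v aqueous/acetone, was added to flood water 1.5 to 3 cm deep over 3 to 5 cm weeds and 1.5 to 2.5 leaf rice.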
compound,measurement,setting,value
CC1SC(=Nc2cc(-n3c(=O)cc(C(F)(F)F)n(C)c3=O)c(F)cc2Cl)N(C)C1=O (stereo not drawn) [Compound 9],AMBEL herbicidal rating,"AMBEL (Ragweed, Common) [1]; rate 0.0156 kg/ha",2.0
same,AMBEL herbicidal rating,"AMBEL (Ragweed, Common) [1]; rate 0.0313 kg/ha",3.5
same,AMBEL herbicidal rating,"AMBEL (Ragweed, Common) [1]; rate 0.0625 kg/ha",7.5
same,AMBEL herbicidal rating,"AMBEL (Ragweed, Common) [1]; rate 0.1250 kg/ha",7.0
same,IPOHE herbicidal rating,[2]; rate 0.0156 kg/ha,4.0
same,IPOHE herbicidal rating,[2]; rate 0.0313 kg/ha,7.0
same,IPOHE herbicidal rating,[2]; rate 0.0625 kg/ha,9.0
same,IPOHE herbicidal rating,[2]; rate 0.1250 kg/ha,9.0
same,GLXMAW herbicidal rating,[3]; rate 0.0156 kg/ha,4.5
same,GLXMAW herbicidal rating,[3]; rate 0.0313 kg/ha,5.8
same,GLXMAW herbicidal rating,[3]; rate 0.0625 kg/ha,6.8
same,GLXMAW herbicidal rating,[3]; rate 0.1250 kg/ha,7.3
same,ZEAMX herbicidal rating,"ZEAMX (Corn, Field); rate 0.0156 kg/ha",4.8
same,ZEAMX herbicidal rating,"ZEAMX (Corn, Field); rate 0.0313 kg/ha",5.0
same,ZEAMX herbicidal rating,"ZEAMX (Corn, Field); rate 0.0625 kg/ha",5.5
same,ZEAMX herbicidal rating,"ZEAMX (Corn, Field); rate 0.1250 kg/ha",7.0
same,ABUTH preemergence herbicidal rating,ABUTH (Velvetleaf); rate 0.0156 kg/ha,9.0
same,ABUTH preemergence herbicidal rating,ABUTH (Velvetleaf); rate 0.0313 kg/ha,9.0
same,ABUTH preemergence herbicidal rating,ABUTH (Velvetleaf); rate 0.0625 kg/ha,9.0
same,ABUTH preemergence herbicidal rating,ABUTH (Velvetleaf); rate 0.1250 kg/ha,9.0
same,ABUTH preemergence herbicidal rating,ABUTH (Velvetleaf); rate 0.2500 kg/ha,9.0
same,AMBEL preemergence herbicidal rating,"AMBEL (Ragweed, Common) [4]; rate 0.0156 kg/ha",3.0
same,AMBEL preemergence herbicidal rating,"AMBEL (Ragweed, Common) [4]; rate 0.0313 kg/ha",6.3
same,AMBEL preemergence herbicidal rating,"AMBEL (Ragweed, Common) [4]; rate 0.0625 kg/ha",7.3
same,AMBEL preemergence herbicidal rating,"AMBEL (Ragweed, Common) [4]; rate 0.1250 kg/ha",9.0
same,AMBEL preemergence herbicidal rating,"AMBEL (Ragweed, Common) [4]; rate 0.2500 kg/ha",9.0
same,CASOB preemergence herbicidal rating,CASOB (Sicklepod); rate 0.0156 kg/ha,1.0
same,CASOB preemergence herbicidal rating,CASOB (Sicklepod); rate 0.0313 kg/ha,1.0
same,CASOB preemergence herbicidal rating,CASOB (Sicklepod); rate 0.0625 kg/ha,3.0
same,CASOB preemergence herbicidal rating,CASOB (Sicklepod); rate 0.1250 kg/ha,5.3
same,CASOB preemergence herbicidal rating,CASOB (Sicklepod); rate 0.2500 kg/ha,8.0
same,GALAP preemergence herbicidal rating,GALAP (Galium); rate 0.0156 kg/ha,1.0
same,GALAP preemergence herbicidal rating,GALAP (Galium); rate 0.0313 kg/ha,4.5
same,GALAP preemergence herbicidal rating,GALAP (Galium); rate 0.0625 kg/ha,9.0
same,GALAP preemergence herbicidal rating,GALAP (Galium); rate 0.1250 kg/ha,9.0
same,GALAP preemergence herbicidal rating,GALAP (Galium); rate 0.2500 kg/ha,9.0
same,ECHCG preemergence herbicidal rating,ECHCG (Barnyardgrass); rate 0.0156 kg/ha,5.7
same,ECHCG preemergence herbicidal rating,ECHCG (Barnyardgrass); rate 0.0313 kg/ha,8.3
same,ECHCG preemergence herbicidal rating,ECHCG (Barnyardgrass); rate 0.0625 kg/ha,8.7
same,ECHCG preemergence herbicidal rating,ECHCG (Barnyardgrass); rate 0.1250 kg/ha,9.0
same,ECHCG preemergence herbicidal rating,ECHCG (Barnyardgrass); rate 0.2500 kg/ha,9.0
same,SETVI preemergence herbicidal rating,"SETVI (Foxtail, Green); rate 0.0156 kg/ha",8.3
same,SETVI preemergence herbicidal rating,"SETVI (Foxtail, Green); rate 0.0313 kg/ha",9.0
same,SETVI preemergence herbicidal rating,"SETVI (Foxtail, Green); rate 0.0625 kg/ha",9.0
same,SETVI preemergence herbicidal rating,"SETVI (Foxtail, Green); rate 0.1250 kg/ha",9.0
same,SETVI preemergence herbicidal rating,"SETVI (Foxtail, Green); rate 0.2500 kg/ha",9.0
same,GLXMAW preemergence herbicidal rating,[5]; rate 0.0156 kg/ha,4.0
same,GLXMAW preemergence herbicidal rating,[5]; rate 0.0313 kg/ha,6.0
same,GLXMAW preemergence herbicidal rating,[5]; rate 0.0625 kg/ha,6.3
same,GLXMAW preemergence herbicidal rating,[5]; rate 0.1250 kg/ha,8.7
same,GLXMAW preemergence herbicidal rating,[5]; rate 0.2500 kg/ha,9.0
same,Herbicidal rating CYPSE,CYPSE (Flatsedge); 0.0313 kg/ha,0.0
same,Herbicidal rating CYPSE,CYPSE (Flatsedge); 0.0625 kg/ha,0.0
same,Herbicidal rating CYPSE,CYPSE (Flatsedge); 0.1250 kg/ha,2.0
same,Herbicidal rating CYPSE,CYPSE (Flatsedge); 0.2500 kg/ha,7.0
same,Herbicidal rating SAGPY,[6]; 0.0313 kg/ha,0.0
same,Herbicidal rating SAGPY,[6]; 0.0625 kg/ha,0.0
same,Herbicidal rating SAGPY,[6]; 0.1250 kg/ha,1.0
same,Herbicidal rating SAGPY,[6]; 0.2500 kg/ha,2.0
same,Herbicidal rating ECHORC,[7]; rate 0.0313 kg/ha,0.0
same,Herbicidal rating ECHORC,[7]; rate 0.0625 kg/ha,2.0
same,Herbicidal rating ECHORC,[7]; rate 0.1250 kg/ha,4.0
same,Herbicidal rating ECHORC,[7]; rate 0.2500 kg/ha,7.0
